The test system of one series is Mtb. The conditions noted are these: delivered orally; cited from earlier work.
Series [1] can be described thus: Thermogravimetric analysis (TGA), thermal stability. It counts as physicochemical. The conditions noted are these: under air at 3° C./min. On the procedure:
The loss of ca 10 wt. % below 100° C. is attributable to crystallized water leading to a dark blue anhydrous Cu(POA)2 crystalline phase, which can also be instantaneously obtained by exposing the hydrated phase to various organic solvents (i.e. MeOH, EtOH and DMF). […] Fourier-transform infrared spectroscopy (FTIR) analysis also clearly distinguishes between the two phases, as an absorption band attributed to coordinated water at 3.400 cm^−1 can be seen for the hydrated form in FIG. 1D.

Regarding `O=C(O)c1cnccn1` [POA, pyrazinoic acid], the “efficacy as TB therapy” value with Mtb is “ineffective”. Moreover, the “thermal stability (TGA)” value in series [1] was 100-200 °C.

The values above are taken from patent US20230398112A1, “SPRAY-DRIED METAL-ORGANIC FRAMEWORKS FOR TREATMENT AND/OR DIAGNOSIS OF PULMONARY DISEASE” (priority 2020, published 2023).
